In patent US20240390335A1, “PHARMACEUTICAL COMPOSITION CONTAINING BETA-LACTAM COMPOUND AND USE THEREOF” (priority 2021, published 2024):
Values after ≈ are worked out from the molar mass of the structure shown. Read-outs that look alike come from different tables or passages of the source. One block for each molecule: values may come before it. Peptide text beside a SMILES is read from it. * marks the point of attachment. βNA = c1ccc2cc(N*)ccc2c1

Columns and labels:
Assay type in all cases: cell-based
[1] = tested on: Acinetobacter baumannii or Pseudomonas aeruginosa; test: MIC assay of individual compounds, summary over non-fermenter strains; conditions: various Acinetobacter baumannii or Pseudomonas aeruginosa strains
Protocol: (§1) Mueller-Hinton broth (MH broth) medium, Trypticase Soy Broth (TSB Broth) medium, purchased from BD Difco, Cockeysville, MD, USA; • 96-well plate: Corning Costar, Cambridge, MA, USA; • Test method: the antibacterial activities were tested by the microdilution method according to the CLSI/NCCLS standard.
(§2) (1) Preparation of the test samples: 4 mg of each sample was taken, and was prepared into a test solution at 1,024 μg/mL with MH broth, and the test solution was diluted two-fold in a 96-well plate to prepare solutions of a series of gradient concentrations, the volume in each well being 90 μL.
(§3) (2) Preparation of a bacteria solution: The test strains were amplified by Trypticase Soy Broth (TSB Broth) according to the CLSI/NCCLS standard.
(§4) (3) Addition of the samples: a bacteria solution with a concentration of 6×10^5 cfu/mL was prepared, and 10 μL of the bacteria solution was pipetted into each well of the 96-well plate. Three parallel experiments were set up for each concentration and the results were averaged. To the negative control group, 10 μL of the bacterial solution and 90 μL MH broth were added.
(§5) (4) Incubation: the 96-well plate was placed in a 37° C. constant-temperature incubator for 18 hours, and the growth of the strains was observed. The drug concentration in the well with no microbial growth was recorded as the MIC.

[2] = tested on: Acinetobacter baumannii; test: Combined in vitro use, checkerboard dilution method
Protocol: (§6) Mueller-Hinton broth (MH broth) medium, Trypticase Soy Broth (TSB Broth) medium, purchased from BD Difco, Cockeysville, MD, USA; • 96-well plate: Corning Costar, Cambridge, MA, USA; • Test method: the checkerboard dilution method was used for determination.
(§7) (1) Preparation of the test samples: 4 mg of each sample was taken and was prepared into a test solution at 2,048 μg/mL with MH broth, and the test solution was diluted two-fold in a 96-well plate to prepare solutions of a series of gradient concentrations.
as §3
(§8) (3) Addition of the samples: 10 μL of the bacteria solution with a concentration of 6×10^5 CFU/mL was pipetted into each well of the 96-well plate. Each well contained the antibacterial drugs (the compound of formula (I-1) and the compound of formula (I-2)) diluted two-fold with broth and the aforementioned lactamase inhibitor or efflux pump inhibitor. […] The samples were mixed thoroughly. Three parallel experiments were set up for each concentration and the results were averaged. To the negative control group, 10 μL of the bacterial solution and 90 μL MH broth were added.
(§9) (4) Incubation: the 96-well plate was placed in a 37° C. constant-temperature incubator for 18 hours, and the growth of the strains was observed.
(§10) (5) Calculation: The in vitro effect of each drug-inhibitor combination was analyzed by calculating the FICI value: FICI=(MIC of drug A in the combination/MIC of drug A alone)+ (MIC of drug B in the combination/MIC of drug B alone).
(§11) In order to ensure the reliability of the data, three repeated tests were conducted on different dates and the results were averaged.

[3] = tested on: Pseudomonas aeruginosa; test: as above
Protocol: as §6, §7, §3, §8, §9, §10, §11

[4] = tested on: Acinetobacter baumannii; test: MIC assay of individual compounds (microdilution, CLSI/NCCLS)
Protocol: as §1, §2, §3, §4, §5

[5] = tested on: Pseudomonas aeruginosa; test: as above
Protocol: as §1, §2, §3, §4, §5

[6] = tested on: Klebsiella pneumoniae; test: Combined in vitro use, checkerboard dilution method
Protocol: as §6, §7, §3, §8, §9, §10, §11

[7] = tested on: drug-resistant Enterobacteriaceae strains; test: Checkerboard combination, summary over Enterobacteriaceae strains; conditions: combined with avibactam; all of the 4 drug-resistant Enterobacteriaceae strains tested
Protocol: as §6, §7, §3
as §8, with “To the negative control group, 10 μL of the bacterial solution and 90 μL MH broth were added.” left out
(5) Calculation: The in vitro effect of each drug-inhibitor combination was analyzed by calculating the FICI value: FICI=(MIC of drug A in the combination/MIC of drug A alone)+ (MIC of drug B in the combination/MIC of drug B alone). […]

[8] = tested on: Klebsiella pneumoniae; test: MIC assay of individual compounds (microdilution, CLSI/NCCLS)
Protocol: as §1, §2, §3, §4, §5

[9] = tested on: Escherichia coli; test: as above
Protocol: as §1, §2, §3, §4, §5

[10] = tested on: Enterobacter cloacae; test: as above
Protocol: as §1, §2, §3, §4, §5

[11] = tested on: drug-resistant Enterobacteriaceae; test: MIC assay of individual compounds, summary over Enterobacteriaceae strains; conditions: against the aforementioned Enterobacteriaceae
Protocol: as §1, §2, §3, §4, §5

[12] = tested on: Escherichia coli; test: Combined in vitro use, checkerboard dilution method; conditions: compound of formula (I-1) combined with vaborbactam; Escherichia coli CCPM(A)-P-071301
Protocol: as §6, §7, §3, §8, §9, §10, §11

[13] = ATCC17978, individual compound, Acinetobacter baumannii ATCC 17978, read-out: MIC
[14] = ATCC19606, individual compound, Acinetobacter baumannii ATCC 19606, read-out: MIC
[15] = Klebsiella pneumoniae, ATCC2146, individual compound, Klebsiella pneumoniae ATCC 2146, read-out: MIC
[16] = Klebsiella pneumoniae, ATCC700603, individual compound, Klebsiella pneumoniae ATCC 700603, read-out: MIC
[17] = Klebsiella pneumoniae, individual compound, Klebsiella pneumoniae CCPM(A)-0814R18, read-out: MIC
[18] = Klebsiella pneumoniae, individual compound, Klebsiella pneumoniae CCPM(A)-0814R33, read-out: MIC
[19] = Klebsiella pneumoniae, individual compound, Klebsiella pneumoniae CCPM(A)-081301, read-out: MIC
[20] = Klebsiella pneumoniae, individual compound, Klebsiella pneumoniae CCPM(A)-081715, read-out: MIC
[21] = Klebsiella pneumoniae, individual compound, Klebsiella pneumoniae CCPM(A)-081716, read-out: MIC
[22] = ATCC2469, individual compound, Escherichia coli ATCC 2469, read-out: MIC
[23] = individual compound, Escherichia coli CCPM(A)-P-071301, read-out: MIC
[24] = ATCC2468, individual compound, Enterobacter cloacae ATCC 2468, read-out: MIC
[25] = individual compound, Pseudomonas aeruginosa PAO1(CCPM(A)-P-09000032), read-out: MIC

Compound: N=C(N)NCCC[C@H](NC(=O)[C@@H](N)Cc1ccccc1)C(=O)Nc1ccc2ccccc2c1 [PAβN, PaβN] (H-Phe-Arg-βNA)
activity of the inhibitor itself [1]: relatively weak activities | MIC in combination ([2]; compound of formula (I-1) combined with PAβN, Acinetobacter baumannii CCPM(A)-P-101633(CRAB)): >0.5 µg/mL | MIC in combination ([3]; compound of formula (I-1) combined with PAβN, Pseudomonas aeruginosa ATCC27853): 64 µg/mL | MIC in combination ([3]; compound of formula (I-1) combined with PAβN, Pseudomonas aeruginosa CCPM(A)-P-091626(CRPA)): 128 µg/mL | MIC in combination ([3]; compound of formula (I-1) combined with PAβN, Pseudomonas aeruginosa PAO1(CCPM(A)-P-09000032)): 64 µg/mL | MIC [4, 13]: > 256 µg/mL | MIC [4, 14]: > 256 µg/mL | MIC ([4]; Acinetobacter baumannii): > 256 µg/mL | MIC ([5]; Pseudomonas aeruginosa): > 256 µg/mL | MIC ([5]; Pseudomonas aeruginosa, ATCC27853): > 256 µg/mL | MIC ([5]; Pseudomonas aeruginosa, PAO1): > 256 µg/mL

Compound: CC1(C)[C@H](NC(=O)/C(=N\OC2(C(=O)O)CCC2)c2csc(N)n2)C(=O)N1OS(=O)(=O)O [Compound of formula (I-2)]
MIC in combination ([6]; compound of formula (I-2) combined with avibactam, Klebsiella pneumoniae ATCC 2146): 0.5 µg/mL | MIC in combination ([6]; compound of formula (I-2) combined with avibactam, Klebsiella pneumoniae ATCC 700603): 0.5 µg/mL | MIC in combination ([6]; compound of formula (I-2) combined with avibactam, Klebsiella pneumoniae CCPM(A)-081715): 0.5 µg/mL | MIC in combination ([6]; compound of formula (I-2) combined with avibactam, Klebsiella pneumoniae CCPM(A)-081729): 0.5 µg/mL | change of MIC values on combination [7]: significantly reduced | MIC [8, 15]: 2 µg/mL | MIC [8, 16]: 2 µg/mL | MIC [8, 17]: 2 µg/mL | MIC [8, 18]: 2 µg/mL | MIC ([8]; Klebsiella pneumoniae, individual compound, Klebsiella pneumoniae CCPM(A)-0817R61, read-out: MIC): 32 µg/mL | MIC [8, 19]: 2 µg/mL | MIC ([8]; Klebsiella pneumoniae, individual compound, Klebsiella pneumoniae CCPM(A)-081705, read-out: MIC): 2 µg/mL | MIC [8, 20]: 1 µg/mL | MIC [8, 21]: 32 µg/mL | MIC ([8]; Klebsiella pneumoniae, individual compound, Klebsiella pneumoniae CCPM(A)-081729, read-out: MIC): 1 µg/mL | MIC [9, 22]: 1 µg/mL | MIC [9, 23]: 1 µg/mL | MIC [10, 24]: 2 µg/mL

Compound: O=C(O)C[C@@H]1CC[C@H](NC(=O)Cc2cccs2)B(O)O1 [Vaborbactam, vaborbactam]
activity of the inhibitor itself [11]: relatively weak activities | MIC in combination ([6]; compound of formula (I-1) combined with vaborbactam, Klebsiella pneumoniae ATCC 700603): 8 µg/mL | MIC in combination ([6]; compound of formula (I-1) combined with vaborbactam, Klebsiella pneumoniae CCPM(A)-0814R33): 2 µg/mL | MIC in combination [12]: 0.5 µg/mL | MIC ([8]; Klebsiella pneumoniae): > 128 µg/mL | MIC ([8]; Klebsiella pneumoniae, ATCC2146): > 128 µg/mL | MIC ([8]; Klebsiella pneumoniae, ATCC700603): > 128 µg/mL | MIC ([8]; individual compound, Klebsiella pneumoniae CCPM(A)-0814R33): >128 µg/mL | MIC ([8]; individual compound, Klebsiella pneumoniae CCPM(A)-081301): >128 µg/mL | MIC ([8]; individual compound, Klebsiella pneumoniae CCPM(A)-081715): >128 µg/mL | MIC ([8]; individual compound, Klebsiella pneumoniae CCPM(A)-081716): >128 µg/mL | MIC ([9]; Escherichia coli): > 128 µg/mL | MIC ([9]; Escherichia coli, ATCC2469): > 128 µg/mL | MIC ([10]; Enterobacter cloacae): > 128 µg/mL | MIC ([10]; Enterobacter cloacae, ATCC2468): > 128 µg/mL

Continued, in another order:

MIC in combination ([6]; compound of formula (I-1) combined with relebactam, Klebsiella pneumoniae ATCC 2146): 0.5 µg/mL | MIC in combination ([6]; compound of formula (I-1) combined with relebactam, Klebsiella pneumoniae ATCC 700603): 8 µg/mL | MIC [8, 15]: 64 µg/mL (≈ 184 µM) | MIC [8, 16]: 64 µg/mL (≈ 184 µM) | MIC [8, 17]: 64 µg/mL (≈ 184 µM) | MIC [8, 18]: 64 µg/mL (≈ 184 µM) | MIC [8, 19]: > 128 µg/mL | MIC [8, 20]: 64 µg/mL (≈ 184 µM) | MIC [8, 21]: 128 µg/mL (≈ 367 µM) | MIC [9, 22]: 64 µg/mL (≈ 184 µM) | MIC [9, 23]: 64 µg/mL (≈ 184 µM) | MIC [10, 24]: 128 µg/mL (≈ 367 µM) | MIC ([10]; individual compound, Enterobacter cloacae CCPM(A)-P-111719, read-out: MIC): 128 µg/mL (≈ 367 µM)
Compound: O=C(NC1CCNCC1)[C@@H]1CC[C@@H]2CN1C(=O)N2OS(=O)(=O)O [Relebactam, relebactam]
activity of the inhibitor itself [11]: relatively weak activities

MIC in combination ([2]; compound of formula (I-1) combined with berberine, Acinetobacter baumannii ATCC 19606): 32 µg/mL | MIC in combination ([2]; compound of formula (I-1) combined with berberine, Acinetobacter baumannii CCPM(A)-P-101633(CRAB)): >0.5 µg/mL | MIC [4, 13]: > 1020 µg/mL | MIC [4, 14]: > 1020 µg/mL | MIC ([4]; individual compound, Acinetobacter baumannii CCPM(A)-P-101633(CRAB), read-out: MIC): > 1020 µg/mL | MIC ([5]; individual compound, Pseudomonas aeruginosa ATCC27853, read-out: MIC): > 1020 µg/mL | MIC ([5]; individual compound, Pseudomonas aeruginosa CCPM(A)-P-091626(CRPA), read-out: MIC): > 1020 µg/mL | MIC [5, 25]: > 1020 µg/mL
Compound: COc1ccc2cc3[n+](cc2c1OC)CCc1cc2c(cc1-3)OCO2 [Berberine, berberine]
activity of the inhibitor itself [1]: relatively weak activities

MIC in combination ([2]; compound of formula (I-1) combined with conessine, Acinetobacter baumannii ATCC 19606): 4 µg/mL | MIC in combination ([3]; compound of formula (I-1) combined with conessine, Pseudomonas aeruginosa PAO1(CCPM(A)-P-09000032)): >256 µg/mL | MIC [4, 14]: > 256 µg/mL | MIC [5, 25]: > 256 µg/mL
Compound: C[C@H]1[C@H]2CC[C@H]3[C@@H]4CC=C5C[C@@H](N(C)C)CC[C@]5(C)[C@H]4CC[C@]23CN1C [Conessine, conessine]
activity of the inhibitor itself [1]: relatively weak activities
